Consider one compound from patent US20250354111A1, “BOVINE SEX-SORTED SPERM SORTING SOLUTION MEDIATED BY SMALL MOLECULE COMPOUND AND ITS APPLICATION” (Inner Mongolia University, priority 2024, published 2025).

In this assay the test system is bovine sperm. Description: Effect of creatine concentration on sorting of X and Y sperm in sorting solution with 24e drug (Example 2). The class given is cell-based. The note with it: creatine 500 μM with 24e drug 0.3 μM; 37° C., 60 min; 6x107 sperm/mL. The protocol: Based on the exploration in Example 1 that the range of 0.27 μM-0.33 μM is the optimal concentration range for the 24e drug to sort bovine sperm, the effect of creatine on the sperm sorting effect was examined by incubating bovine sperm with creatine added to the sorting solution with a 24e drug concentration of 0.3 μM.
Fresh bovine semen provided by the Grassland Livestock Germplasm Innovation and Breeding Base of Inner Mongolia University was used, washed with in vitro fertilization solution, and after dilution, the sperm density was 6x107 sperm/mL. At 37° C., the 24e drug was added to the sperm sorting protection solution to make the final concentration of the 24e drug 0.3 μM. On this basis, creatine was added, and bovine sperm was incubated for 60 min. The amounts of creatine used were 0 μM (control group), 200 μM, 300 μM, 400 μM, 500 µM, and 600 μM. The sorting effect of sperm at each creatine concentration was obtained by analyzing the sperm in the upper and lower layers, as shown in FIG. 2. […] In the upper layer of sperm, the percentage of X sperm is 22%, and the percentage of Y sperm is 78%. Creatine can enhance the activity of sperm, so that Y sperm floats up faster, while the activity of X sperm is inhibited by the 24e drug and sinks, making the stratification more obvious and improving the sorting efficiency. When the sperm density is 6x10^7 sperm/mL, the concentration of the 24e drug is 0.27 μM-0.33 μM, and the creatine concentration is 500 μM-600 μM, the sorting effect on bovine sperm is the best.

On to `CN(CC(=O)O)C(=N)N` [creatine], for which the “percentage of X sperm in the lower layer of sorted sperm” value amounted to 70.33%, the “percentage of X sperm in the upper layer of sperm” value is given as 22%, the “percentage of Y sperm in the lower layer of sorted sperm” value stood at 29.67% and the “percentage of Y sperm in the upper layer of sperm” value amounted to 78%.
